In US20220151953A1, “TREATMENT OF INFLAMMATORY SKIN CONDITIONS” (Echo Pharmaceuticals B.V., priority 2019, published 2022):

Assays:
prostaglandin E2 (PGE2) = assay: Secretion of PGE2 by LPS-stimulated RAW 264.7 cells; type: cell-based; settings: Mus musculus, RAW264.7, LPS 12.5 ng/ml, each component present at 2.5 μg/ml
Experimental: The impact of cannabidiol, extract of Silybum marianum (fruit without pappus) and extract of Centella asiatica (leaf) on the secretion of prostaglandin E2 (PGE2) was investigated.
RAW 264.7 cells (approx. 2.5×10^5¢/ml, by counting) were seeded in 96 well plates containing 170 μl/well of complete growth medium. The cells were incubated at 37° C. with 5% CO2 for 24 hr. Then, the medium was aspirated and replaced by LPS-containing medium (12.5 ng/ml) without or with the test components. In addition, naïve cells, vehicle-treated cells, Stimulated Control, and Stimulated Vehicle Control served as negative controls. Dexamethasone served as a positive control for anti-inflammatory assay. A Blank control group was included in the assay.
The spent media from all test groups were collected under standardized conditions and centrifuged at 250 g for 5 min to remove particulates. Clear supernatants were frozen at −70° C. until analysis. The secretion levels of PGE2 (an important inflammatory marker) were determined.

IL-1β = assay: Inhibition of secretion of IL-1β by LPS-stimulated U937 cells (ELISA); type: cell-based
Experimental: (§1) The impact of cannabidiol, extract of Silybum marianum (fruit without pappus) and combinations of these components on the production of cytokines IL-1β and TNFα by a U937 cell line were investigated.
(§2) U937 cells, were thawed and treated according to the manufacturer's instructions. The cultures were incubated for recovery at 37° C. with 5% CO2 until 70-80% confluency was reached (visual estimation). Then, approx. 0.3×10^6¢/mL (determined by counting) were seeded in 96 well plates containing 200 μL/well of complete growth medium. The cells were incubated at 37° C. with 5% CO2 until 60% confluency was reached (visual estimation, typically—after 48 hr).
(§3) A proper blank control was subtracted from the measurements.
(§4) The cells were incubated for 24 hr. at 37° C. with 5% CO2. After the incubation, the conditioned medium of the different treatment groups was collected under standardized conditions and centrifuged at 250×g for 5 min to remove particulates. Clear supernatants were frozen at −70° C. until cytokines analyses. The secretion levels of IL-1β and TNFα (a major inflammatory marker) were quantified by commercial ELISA.

TNFα = assay: Inhibition of secretion of TNFα by LPS-stimulated U937 cells (ELISA); type: cell-based
Experimental: as §1, §2, §3, §4

human sebocytes = settings: cultured human sebocytes and human skin organ culture; cited from earlier work
[1] = Homo sapiens, U-937, 1 μg/mL lipopolysaccharides, 24 hr, each component present at 10 μg/ml
[2] = LPS-stimulated, summary of Table 2

C=C(C)[C@@H]1CCC(C)=C[C@H]1c1c(O)cc(CCCCC)cc1O [Sample 1, Cannabidiol]
inhibition at 2.5 µg/mL (prostaglandin E2 (PGE2)): 24%
inhibition at 10 µg/mL (IL-1β; [1]): 28.4%
effect on secretion of IL-1β (in words) (IL-1β; [2]): attenuates secretion
inhibition at 10 µg/mL (TNFα; [1]): 48%
effect on secretion of TNFα (in words) (TNFα; [2]): attenuates secretion
effect on lipogenic actions of arachidonic acid, linoleic acid and testosterone (human sebocytes): inhibited the lipogenic actions of various compounds
effect on sebocyte proliferation (human sebocytes): suppressed sebocyte proliferation
